Data from the supplement of paper PMC9663587.

Legend:
[1] = compound: COc1ccc2c(c1)[C@]1(C[C@H]1c1ccc3c(/C=C/c4ccc(CN5C[C@@H](C)O[C@@H](C)C5)cc4)n[nH]c3c1)C(=O)N2
Paclitaxel = compound: CC(=O)O[C@H]1C(=O)[C@@]2(C)[C@H]([C@H](OC(=O)c3ccccc3)[C@]3(O)C[C@H](OC(=O)[C@H](O)[C@@H](NC(=O)c4ccccc4)c4ccccc4)C(C)=C1C3(C)C)[C@]1(OC(C)=O)CO[C@@H]1C[C@@H]2O [Paclitaxel]
Tivantinib/ARQ197 = compound: O=C1NC(=O)[C@@H](c2cn3c4c(cccc24)CCC3)[C@@H]1c1c[nH]c2ccccc12 [Tivantinib/ARQ197]
Ceritinib/LDK378 = compound: Cc1cc(Nc2ncc(Cl)c(Nc3ccccc3S(=O)(=O)C(C)C)n2)c(OC(C)C)cc1C1CCNCC1 [Ceritinib/LDK378]
LEE011/Ribociclib [2] = compound: T1, CN(C)C(=O)c1cc2cnc(Nc3ccc(N4CCNCC4)cn3)nc2n1C1CCCC1 [LEE011/Ribociclib]
Volasertib/BI6727 = compound: CC[C@@H]1C(=O)N(C)c2cnc(Nc3ccc(C(=O)N[C@H]4CC[C@H](N5CCN(CC6CC6)CC5)CC4)cc3OC)nc2N1C(C)C [Volasertib/BI6727]
Taselisib/GDC0032 = compound: Cc1nc(-c2cn3c(n2)-c2ccc(-c4cnn(C(C)(C)C(N)=O)c4)cc2OCC3)n(C(C)C)n1 [Taselisib/GDC0032]
[3] = compound: CCN1CCN(Cc2ccc(Nc3ncc(F)c(-c4cc(F)c5nc(C)n(C(C)C)c5c4)n3)nc2)CC1
THZ531 = compound: CN(C)C/C=C/C(=O)Nc1ccc(C(=O)N2CCC[C@@H](Nc3ncc(Cl)c(-c4c[nH]c5ccccc45)n3)C2)cc1 [THZ531]
Neratinib/HKI272 [4] = compound: T2, CCOc1cc2ncc(C#N)c(Nc3ccc(OCc4ccccn4)c(Cl)c3)c2cc1NC(=O)/C=C/CN(C)C [Neratinib/HKI272]
Pictilisib/GDC0941 = compound: CS(=O)(=O)N1CCN(Cc2cc3nc(-c4cccc5[nH]ncc45)nc(N4CCOCC4)c3s2)CC1 [Pictilisib/GDC0941]
INK128/MLN0128 = compound: CC(C)n1nc(-c2ccc3oc(N)nc3c2)c2c(N)ncnc21 [INK128/MLN0128]
BSJ-03-123 [5] = compound: T3, CC(=O)c1c(C)c2cnc(Nc3ccc(N4CCN(CCOCCOCCOCCNC(=O)COc5cccc6c5C(=O)N(C5CCC(=O)NC5=O)C6=O)CC4)cn3)nc2n(C2CCCC2)c1=O [BSJ-03-123]
ABT-737 = compound: CN(C)CC[C@H](CSc1ccccc1)Nc1ccc(S(=O)(=O)NC(=O)c2ccc(N3CCN(Cc4ccccc4-c4ccc(Cl)cc4)CC3)cc2)cc1[N+](=O)[O-] [ABT-737]
LEE011/Ribociclib [6] = compound: T1, LEE011/Ribociclib; assay: GR value, 72 h; higher = faster growth (1 = untreated, <0 = killing);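 also: breast cancer and non-malignant breast epithelial lines, nine half-log doses, viable cells counted by Hoechst and LIVE/DEAD dye imaging versus time-zero plates and DMSO controls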
[7] = compound: CCN1CCN(Cc2ccc(Nc3ncc(F)c(-c4cc(F)c5nc(C)n(C(C)C)c5c4)n3)nc2)CC1; assay: as above
Neratinib/HKI272 [8] = compound: T2, Neratinib/HKI272; assay: as above
BSJ-03-123 [9] = compound: T3, BSJ-03-123; assay: as above
YKL-5-124 = compound: C=CC(=O)Nc1ccc(C(=O)Nc2[nH]nc3c2CN(C(=O)N[C@H](CN(C)C)c2ccccc2)C3(C)C)cc1 [YKL-5-124]; assay: as above
[10] = compound: CCc1cnn2c(NCc3ccc[n+]([O-])c3)cc(N3CCCC[C@H]3CCO)nc12; assay: as above
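For GR50, 72 h in this document: breast cancer and non-malignant breast epithelial cell lines, Deep Dye Drop or Dye Drop imaging, nine half-log doses, GR normalized to time-zero plates and DMSO-only controls.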

ZR7530
GR50, 72 h [1]: 0.00327 µM | GR50, 72 h (Paclitaxel): 0.00474 µM | GR50, 72 h (Tivantinib/ARQ197): 0.554 µM | GR50, 72 h (Ceritinib/LDK378): 1.75 µM | GR50, 72 h (LEE011/Ribociclib [2]): 0.692 µM | GR50, 72 h (Volasertib/BI6727): 0.00621 µM | GR50, 72 h (Taselisib/GDC0032): 0.0102 µM | GR50, 72 h [3]: 0.00886 µM | GR50, 72 h (THZ531): 0.0583 µM | GR50, 72 h (Neratinib/HKI272 [4]): 0.000681 µM | GR50, 72 h (Pictilisib/GDC0941): 0.217 µM | GR50, 72 h (INK128/MLN0128): 0.0153 µM | GR50, 72 h (BSJ-03-123 [5]): 0.58 µM | GR50, 72 h (ABT-737): > 10 µM | GR value (LEE011/Ribociclib [6]; 0.001 µM): 0.854 GR | GR value (LEE011/Ribociclib [6]; 0.003162 µM): 0.695 GR | GR value (LEE011/Ribociclib [6]; 0.01 µM): 0.687 GR | GR value (LEE011/Ribociclib [6]; 0.03162 µM): 0.857 GR | GR value (LEE011/Ribociclib [6]; 0.1 µM): 0.607 GR | GR value (LEE011/Ribociclib [6]; 0.3162 µM): 0.463 GR | GR value (LEE011/Ribociclib [6]; 1 µM): 0.434 GR | GR value (LEE011/Ribociclib [6]; 3.162 µM): 0.443 GR | GR value (LEE011/Ribociclib [6]; 10 µM): 0.41 GR | GR value ([7]; 0.001 µM): 1.05 GR | GR value ([7]; 0.003162 µM): 1.03 GR | GR value ([7]; 0.01 µM): 0.769 GR | GR value ([7]; 0.03162 µM): 0.57 GR | GR value ([7]; 0.1 µM): 0.322 GR | GR value ([7]; 0.3162 µM): 0.276 GR | GR value ([7]; 1 µM): 0.282 GR | GR value ([7]; 3.162 µM): 0.229 GR | GR value ([7]; 10 µM): 0.127 GR | GR value (Neratinib/HKI272 [8]; 0.0003162 µM): 0.699 GR | GR value (Neratinib/HKI272 [8]; 0.001 µM): 0.374 GR | GR value (Neratinib/HKI272 [8]; 0.003162 µM): 0.0338 GR | GR value (Neratinib/HKI272 [8]; 0.01 µM): -0.0663 GR | GR value (Neratinib/HKI272 [8]; 0.03162 µM): -0.199 GR | GR value (Neratinib/HKI272 [8]; 0.1 µM): -0.22 GR | GR value (Neratinib/HKI272 [8]; 0.3162 µM): -0.262 GR | GR value (Neratinib/HKI272 [8]; 1 µM): -0.411 GR | GR value (Neratinib/HKI272 [8]; 3.162 µM): -0.497 GR | GR value (BSJ-03-123 [9]; 0.001 µM): 0.784 GR | GR value (BSJ-03-123 [9]; 0.003162 µM): 0.857 GR | GR value (BSJ-03-123 [9]; 0.01 µM): 0.824 GR | GR value (BSJ-03-123 [9]; 0.03162 µM): 0.72 GR | GR value (BSJ-03-123 [9]; 0.1 µM): 0.835 GR | GR value (BSJ-03-123 [9]; 0.3162 µM): 0.615 GR | GR value (BSJ-03-123 [9]; 1 µM): 0.398 GR | GR value (BSJ-03-123 [9]; 3.162 µM): 0.395 GR | GR value (BSJ-03-123 [9]; 10 µM): -0.258 GR | GR value (YKL-5-124; 0.001 µM): 0.344 GR | GR value (YKL-5-124; 0.003162 µM): 0.254 GR | GR value (YKL-5-124; 0.01 µM): 0.245 GR | GR value (YKL-5-124; 0.03162 µM): 0.309 GR | GR value (YKL-5-124; 0.1 µM): 0.197 GR | GR value (YKL-5-124; 0.3162 µM): 0.138 GR | GR value (YKL-5-124; 1 µM): 0.176 GR | GR value (YKL-5-124; 3.162 µM): 0.177 GR | GR value (YKL-5-124; 10 µM): -0.625 GR | GR value ([10]; 0.0001 µM): 0.895 GR | GR value ([10]; 0.0003162 µM): 0.995 GR | GR value ([10]; 0.001 µM): 1.06 GR | GR value ([10]; 0.003162 µM): 0.953 GR | GR value ([10]; 0.01 µM): 0.909 GR | GR value ([10]; 0.03162 µM): -0.42 GR | GR value ([10]; 0.1 µM): -0.601 GR | GR value ([10]; 0.3162 µM): -0.696 GR | GR value ([10]; 1 µM): -0.728 GR

HCC1419
GR50, 72 h [1]: 0.00375 µM | GR50, 72 h (Paclitaxel): 0.00526 µM | GR50, 72 h (Tivantinib/ARQ197): 0.473 µM | GR50, 72 h (Ceritinib/LDK378): 2.61 µM | GR50, 72 h (LEE011/Ribociclib [2]): > 10 µM | GR50, 72 h (Volasertib/BI6727): 0.0207 µM | GR50, 72 h (Taselisib/GDC0032): 0.00918 µM | GR50, 72 h [3]: 0.0969 µM | GR50, 72 h (THZ531): 0.162 µM | GR50, 72 h (Neratinib/HKI272 [4]): 0.00115 µM | GR50, 72 h (Pictilisib/GDC0941): 0.172 µM | GR50, 72 h (INK128/MLN0128): 0.00475 µM | GR50, 72 h (BSJ-03-123 [5]): 0.491 µM | GR50, 72 h (ABT-737): 9.85 µM | GR value (LEE011/Ribociclib [6]; 0.001 µM): 0.953 GR | GR value (LEE011/Ribociclib [6]; 0.003162 µM): 0.835 GR | GR value (LEE011/Ribociclib [6]; 0.01 µM): 0.774 GR | GR value (LEE011/Ribociclib [6]; 0.03162 µM): 0.889 GR | GR value (LEE011/Ribociclib [6]; 0.1 µM): 0.685 GR | GR value (LEE011/Ribociclib [6]; 0.3162 µM): 0.58 GR | GR value (LEE011/Ribociclib [6]; 1 µM): 0.655 GR | GR value (LEE011/Ribociclib [6]; 3.162 µM): 0.561 GR | GR value (LEE011/Ribociclib [6]; 10 µM): 0.525 GR | GR value ([7]; 0.001 µM): 1.13 GR | GR value ([7]; 0.003162 µM): 0.823 GR | GR value ([7]; 0.01 µM): 0.714 GR | GR value ([7]; 0.03162 µM): 0.548 GR | GR value ([7]; 0.1 µM): 0.548 GR | GR value ([7]; 0.3162 µM): 0.415 GR | GR value ([7]; 1 µM): 0.487 GR | GR value ([7]; 3.162 µM): 0.303 GR | GR value ([7]; 10 µM): 0.2 GR | GR value (Neratinib/HKI272 [8]; 0.0003162 µM): 0.769 GR | GR value (Neratinib/HKI272 [8]; 0.001 µM): 0.611 GR | GR value (Neratinib/HKI272 [8]; 0.003162 µM): 0.148 GR | GR value (Neratinib/HKI272 [8]; 0.01 µM): 0.0675 GR | GR value (Neratinib/HKI272 [8]; 0.03162 µM): -0.097 GR | GR value (Neratinib/HKI272 [8]; 0.1 µM): -0.159 GR | GR value (Neratinib/HKI272 [8]; 0.3162 µM): -0.26 GR | GR value (Neratinib/HKI272 [8]; 1 µM): -0.404 GR | GR value (Neratinib/HKI272 [8]; 3.162 µM): -0.494 GR | GR value (BSJ-03-123 [9]; 0.001 µM): 0.753 GR | GR value (BSJ-03-123 [9]; 0.003162 µM): 0.75 GR | GR value (BSJ-03-123 [9]; 0.01 µM): 0.669 GR | GR value (BSJ-03-123 [9]; 0.03162 µM): 0.644 GR | GR value (BSJ-03-123 [9]; 0.1 µM): 0.643 GR | GR value (BSJ-03-123 [9]; 0.3162 µM): 0.527 GR | GR value (BSJ-03-123 [9]; 1 µM): 0.432 GR | GR value (BSJ-03-123 [9]; 3.162 µM): 0.443 GR | GR value (BSJ-03-123 [9]; 10 µM): 0.165 GR | GR value (YKL-5-124; 0.001 µM): 0.259 GR | GR value (YKL-5-124; 0.003162 µM): 0.184 GR | GR value (YKL-5-124; 0.01 µM): 0.0618 GR | GR value (YKL-5-124; 0.03162 µM): 0.124 GR | GR value (YKL-5-124; 0.1 µM): -0.0246 GR | GR value (YKL-5-124; 0.3162 µM): -0.0463 GR | GR value (YKL-5-124; 1 µM): -0.0452 GR | GR value (YKL-5-124; 3.162 µM): -0.184 GR | GR value (YKL-5-124; 10 µM): -0.379 GR | GR value ([10]; 0.0001 µM): 1.15 GR | GR value ([10]; 0.0003162 µM): 1.16 GR | GR value ([10]; 0.001 µM): 1.06 GR | GR value ([10]; 0.003162 µM): 1.25 GR | GR value ([10]; 0.01 µM): 1.15 GR | GR value ([10]; 0.03162 µM): 0.199 GR | GR value ([10]; 0.1 µM): -0.384 GR | GR value ([10]; 0.3162 µM): -0.426 GR | GR value ([10]; 1 µM): -0.471 GR
